According to US20240336657A1, “G-ALPHA-S PEPTIDE INHIBITORS AND USES THEREOF” (The Regents of the University of California, priority 2021, published 2024):
Positions of bridges follow the written chain, without caps; N, C: chain ends. Non-standard residues stand in square brackets, D forms with d. Residues, ends and D or L forms follow the SMILES beside them.

Molecular target: GppNHp-bound Gαs (Homo sapiens, UniProt P63092)
Assay: Adenylyl cyclase activity assay (Gαs-mediated adenylyl cyclase activation, cAMP production, LANCE Ultra cAMP kit)
Type: biochemical
Parameters: made in house; host or cells: Escherichia coli BL21(DE3)
Details: 6.25 μM of GN13; in the presence of Gβ1/γ2
Excerpt: Active state binding cyclic peptide GN13 blocks Gαs-mediated adenylyl cyclase activation. In order to determine whether (Gαs/GppNHp) specific binders inhibit Gαs activity, we assayed the ability of Gαs to activate its downstream effector adenylyl cyclase (AC) (FIG. 17A). We refer to resynthesized active state binding cyclic peptides with a “GN” (Gαs/GppNHp) preceding their ranking number. […] We then evaluated the inhibitory effect of the top hits on Gαs-mediated adenylyl cyclase activation by measuring production of cAMP in a reconstituted Gαs activity assay (FIG. 17A). […] Cyclic peptides dose dependent inhibition (FIG. 17C). […] WT Gαs at a concentration of 8.5 mg/mL (about 190 μM) in 20 mM HEPES 8.0, 150 mM NaCl, 5 mM MgCl2, 1 mM EDTA-Na 8.0 was diluted to 0.5 μM in dilution buffer (1× PBS 7.4, 0.1% BSA, 1 mM EDTA-Na 8.0, 2 mM DTT, 0.1 mM MgCl2) plus 1 mM GppNHp. […] Reaction mixture was further incubated at room temperature for 2 hours and placed on ice for 5 minutes. cAMP production was initiated by addition of […] of ATP stock (1 mM ATP, 1× PBS 7.4, 0.1% BSA). The reaction was carried out at 30° C. for 10 minutes in a PCR machine and stopped by heating at 95° C. for 3 minutes. The cAMP concentrations were measured by the LANCE Ultra cAMP kit. […] The cAMP concentrations were measured by the LANCE Ultra cAMP kit. cAMP concentrations measurement by the LANCE Ultra cAMP kit. […]

Chain of GppNHp-bound Gαs (P63092 1-380 isoform P63092-2): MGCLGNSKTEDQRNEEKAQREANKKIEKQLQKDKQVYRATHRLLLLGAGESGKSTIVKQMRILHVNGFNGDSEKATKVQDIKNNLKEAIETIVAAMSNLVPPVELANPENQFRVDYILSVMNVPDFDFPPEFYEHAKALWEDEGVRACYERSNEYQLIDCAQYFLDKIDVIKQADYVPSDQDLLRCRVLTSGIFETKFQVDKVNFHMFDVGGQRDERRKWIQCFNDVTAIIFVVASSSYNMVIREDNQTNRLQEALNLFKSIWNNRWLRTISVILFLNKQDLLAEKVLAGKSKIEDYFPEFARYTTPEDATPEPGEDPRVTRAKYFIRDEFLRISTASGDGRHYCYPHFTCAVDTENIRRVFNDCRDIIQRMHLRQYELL

SMILES: CC[C@H](C)[C@@H]1NC(=O)[C@H](C)NC(=O)[C@H](Cc2ccc(O)cc2)NC(=O)[C@H](C(C)C)NC(=O)[C@H](CO)NC(=O)[C@H](CCC(=O)O)NC(=O)[C@H](Cc2ccccc2)NC(=O)[C@@H](Cc2ccc(O)cc2)NC(=O)CSC[C@@H](C(=O)NCC(N)=O)NC(=O)[C@H](CC(C)C)NC(=O)[C@H]([C@@H](C)O)NC(=O)CNC(=O)[C@H](Cc2c[nH]c3ccccc23)NC1=O [GN13] ({CH2CO}-[dY]FESVYAIWGTLCG-NH2; thioether N-13)
- inhibition of adenylyl cyclase activation by Gαs WT: inhibits
